Assay results from patent US9439920B2, “Composition for the management of nausea and vomiting” (Duchesnay Inc., priority 2013, dated 2016).

What was measured:
Assay type in all cases: in vivo, human
[1] = system: pregnant women suffering from nausea and vomiting of pregnancy; assay: Randomized controlled efficacy trial of Diclectin vs. placebo in pregnant women: plasma levels vs PUQE score; settings: pregnant women treated with Diclectin for 14 days
Description: A randomized controlled efficacy trial of Diclectin® vs. placebo in pregnant women was carried out as follows, with the results shown in FIG. 1.
To assess the plasma levels of Doxylamine and PLP and the severity of nausea and vomiting of pregnancy symptoms in pregnant women treated with Diclectin®.
The demographic and medical characteristics of the subjects are as described in Koren et al., Am J Obstet Gynecol 2010; 203(6):571.e1-7.
The study design is as described in Koren et al., 2010, supra. Briefly, a randomized, double-blind, multicenter placebo controlled trial studying pregnant women suffering from nausea and vomiting of pregnancy, analyzed by intention to treat. Women received Diclectin (n=131) or placebo (n=125) for 14 days. Nausea and vomiting of pregnancy symptoms were evaluated daily using the pregnancy unique quantification of emesis scale (PUQE-24, Ebrahimi et al., J Obstet Gynaecol Can. 2009 September; 31(9):803-7).

[2] = Another study with different doses of R5P (5, 10 or 20 mg) in healthy women; settings: 8 healthy women, controls not administered with R5P
Description: In another study, different doses of R5P were tested: 5, 10 or 20 mg of R5P (i.e. equivalent to the formulations administered to Treatment group C above, with the exception that 5, 10 or 20 mg of R5P was used rather than 40 mg R5P; 8 healthy women for each dose), and the PLP levels were compared to those measured in control healthy women not administered with R5P (24 subjects, equivalent to Treatment group A above).

[3] = Randomized controlled bioavailability study in healthy women, three way cross over (Example 2)
Text: Three Way Cross Over Design.
Bioavailability; Tmax, Cmax and AUC0-t between each treatment.

[4] = co-administration of 40 mg of R5P

Row | SMILES | relation of average plasma concentration to severity of NVP (PUQE score) [1] | effect on PLP levels relative to controls ([2]; 5 mg of R5P) | effect on PLP levels relative to controls ([2]; 10 mg of R5P) | effect on pharmacokinetics of PLP relative to controls ([2]; 20 mg of R5P) | general improvement in the pharmacokinetic profile of PLP ([3]; administration of R5P) | PLP levels at 12h [3, 4] | increase in the plasma level of PLP (AUC 0-2 h) following administration of Pyridoxine [3, 4] | PLP concentration (using AUC) over the period 0-12 h ([3]; plasma, healthy women, fasted, compared with Diclectin (PA_DR), one-way ANOVA P>0.05)
1 | Cc1ncc(COP(=O)(O)O)c(C=O)c1O [PLP, Pyridoxal 5-phosphate] | correlates with a decrease in the severity of the NVP | – | – | – | – | – | – | –
2 | Cc1cc2nc3c(=O)[nH]c(=O)nc-3n(C[C@H](O)[C@H](O)[C@H](O)COP(=O)(O)O)c2cc1C [R5P, riboflavin-5-phosphate] | – | no significant effect | no significant effect | some improvement in the pharmacokinetics of PLP | less inter-subject variations and decreased time to reach steady-state PLP levels | does not significantly affect | faster increase in the plasma level of PLP | did not increase PLP levels significantly
3 | CN(C)CCOC(C)(c1ccccc1)c1ccccn1 (stereo not drawn) [Doxylamine, reference compound] | correlates with a decrease in the severity of the NVP | – | – | – | – | – | – | –
